One may read the pIC50 as −log10 of the IC50, conventionally taken in molar units. A high value points to a low IC50.

The results in this text go back to article PMC7317212 (Chemmedchem, 2020).

The target in assay [1] is T1, mGAT1 (Mus musculus, UniProt P31648).
T1 construct: expressed in transfected cells; host or cells: HEK293
Nature of the assay: MS Binding Assay with NO711 as native MS marker. The note with it: for Ki: MS Binding Assay, NO711 marker, pKi±SEM, read-out: pK i mGAT1 (converted); for remaining activity at 100 µM: in presence of 100 μM compound, read-out: remaining specific NO711 binding (mGAT1). The method, then: (§1) For compounds with pIC50 ([^3H]GABA uptake assay) or pK i (MS Binding Assays) values close to or above 5.0, these experiments were repeated twice and SEM have been calculated.
MS Binding Assays: The MS Binding Assays were performed with mGAT1 membrane preparations obtained from a stably mGAT1 expressing HEK293 cell line and NO711 as unlabeled marker in competitive binding experiments as previously described in detail.34 In short, test compounds were investigated at 7 concentrations in presence of 10 nM NO 711 in competition experiments. Non specific binding was defined as binding remaining in the presence of 100 mM GABA. Incubation was terminated by transfer of 200 μL per well onto a 96‐well filter plate (Acroprep, glass fibre, 1.0 μm, 350 μL, Pall, Dreieich, Germany) with a 12 channel pipette. After rapid vacuum‐filtration the filters were washed with ice cold 0.9 % NaCl (5×150 μL) and dried at 50 °C for 60 min. Afterwards, the filters were eluted with 100 μL methanol containing [^2H10]NO711 (1.4 nM) as internal standard per well into a deep‐well plate by application of vacuum. This step was repeated twice resulting in a total elution volume of 300 μL. Finally, a volume of 130 μL ammonium formate buffer (10 mM, pH 7.0) was added per well and the generated samples analyzed by LC‐ESI‐MS/MS using a API 3200 as described in detail previously.40

In assay [2] the target is T2, mGAT4 (Mus musculus, UniProt P31650).
T2 construct: expressed in transfected cells; host or cells: HEK293
T2 sequence (P31650 1-627): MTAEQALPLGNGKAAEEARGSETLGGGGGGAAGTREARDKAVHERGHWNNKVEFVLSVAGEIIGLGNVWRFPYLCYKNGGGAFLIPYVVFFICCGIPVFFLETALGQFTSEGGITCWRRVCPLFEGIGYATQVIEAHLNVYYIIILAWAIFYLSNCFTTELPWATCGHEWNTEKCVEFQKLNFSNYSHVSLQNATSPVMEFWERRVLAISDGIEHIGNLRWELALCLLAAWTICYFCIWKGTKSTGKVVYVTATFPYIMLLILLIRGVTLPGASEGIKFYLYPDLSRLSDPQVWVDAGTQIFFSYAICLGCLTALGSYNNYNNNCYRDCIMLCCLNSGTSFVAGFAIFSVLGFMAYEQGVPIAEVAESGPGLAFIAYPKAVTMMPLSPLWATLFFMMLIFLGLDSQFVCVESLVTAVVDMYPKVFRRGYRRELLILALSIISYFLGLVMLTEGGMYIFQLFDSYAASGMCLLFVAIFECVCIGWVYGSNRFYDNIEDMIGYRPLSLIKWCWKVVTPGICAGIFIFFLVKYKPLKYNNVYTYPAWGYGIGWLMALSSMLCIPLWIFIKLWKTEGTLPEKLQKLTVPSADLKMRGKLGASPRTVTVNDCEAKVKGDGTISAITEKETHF
In words: [^3H]GABA uptake assay, HEK293 cells expressing mGAT4. The assay is classed as cell-based. To be noted: for remaining activity at 100 µM: HEK293. How it is done:
as §1
(§2) [^3H]GABA uptake assays: The [^3H]GABA uptake assays were performed according to Kragler et al.33 Cells were grown in 150 cm^2 plates to a confluence of 70–90 % up to passage 25. After detachment the cells were centrifuged 5 min at 500×g, washed for three times in phosphate buffered saline and, finally, resuspended in Krebs buffer (2.5 mM CaCl2, 1.2 mM MgSO4, 1.2 mM KH2PO4, 4.7 mM KCl, 11 mM glucose, 25 mM Tris, 119 mM NaCl, pH 7.2). The uptake assays were performed with aliquots of the resulting cell suspension (about 100000–200000 cells per well) in a total volume of 250 μl in 96 well 2.2 mL deep well plates. The cells were equilibrated for 25 min in Krebs buffer in the presence of the test compound at 37 °C in a gently shaking water bath. […] After addition of 25 μl of a solution containing [^3H]GABA (2.22 TBq/mmol, ARC, St Louis, MO, USA) and unlabeled GABA in Krebs (final concentration 8 nM [^3H]GABA and 32 nM unlabeled GABA for mGAT1, mGAT3, mGAT4 and 20 nM [^3H]GABA and 20 nM unlabeled GABA for mGAT2) the cells were incubated for further 4 min (mGAT1, mGAT3, mGAT4) or 10 minutes (mGAT2), respectively. The incubation was stopped by filtration through Sartorius MGC micro glass fiber filters pre‐soaked for 1 h in 0.9 % NaCl by means of a Brandell MWXR‐96TI cell harvester (Brandell, Gaithersburg, MD, USA) under reduced pressure. The filters were rinsed two times with cold 0.9 % NaCl and subsequently transferred to 96 well sample plates (Perkin Elmer LAS, Boston, MA, USA). After addition of 200 μl Rotiszint Eco Plus (Roth, Karlsruhe, Germany) per well the radioactivity was determined in a microbeta liquid scintillation counter (Perkin Elmer LAS, Boston, MA, USA). Non‐specific uptake was determined in presence of 10 mM GABA for mGAT1, mGAT3 and mGAT4 or 100 mM GABA for mGAT2, respectively. The results are expressed as means±S.E.M. of at least three separate experiments, each carried out in triplicate.

The target of assay [3] is T3, mGAT3 (Mus musculus, UniProt P31649).
T3 construct: expressed in transfected cells; host or cells: HEK293
T3 sequence (P31649 1-602): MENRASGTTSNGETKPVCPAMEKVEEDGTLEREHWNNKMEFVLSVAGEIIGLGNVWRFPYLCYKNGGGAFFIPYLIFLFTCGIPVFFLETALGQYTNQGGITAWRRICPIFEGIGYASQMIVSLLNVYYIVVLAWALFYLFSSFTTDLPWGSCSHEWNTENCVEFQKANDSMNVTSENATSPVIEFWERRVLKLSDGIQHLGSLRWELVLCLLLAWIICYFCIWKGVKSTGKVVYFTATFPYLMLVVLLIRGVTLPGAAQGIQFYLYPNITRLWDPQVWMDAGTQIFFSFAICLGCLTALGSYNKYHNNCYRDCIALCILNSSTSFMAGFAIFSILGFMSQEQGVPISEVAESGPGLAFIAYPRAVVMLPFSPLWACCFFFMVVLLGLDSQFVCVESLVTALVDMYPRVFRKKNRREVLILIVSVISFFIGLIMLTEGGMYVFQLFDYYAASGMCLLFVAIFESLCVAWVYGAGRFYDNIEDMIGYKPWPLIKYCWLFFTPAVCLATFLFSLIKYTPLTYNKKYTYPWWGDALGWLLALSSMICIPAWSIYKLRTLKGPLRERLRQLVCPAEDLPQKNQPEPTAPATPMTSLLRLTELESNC
In words: [^3H]GABA uptake assay, HEK293 cells expressing mGAT3. The assay is classed as cell-based. To be noted: for pIC50: [^3H]GABA uptake, pIC50±SEM; for remaining activity at 100 µM: HEK293, in presence of 100 μM compound. The method, then:
as §1, §2

The target of assay [4] is T4, mGAT2 (Mus musculus, UniProt P31651).
T4 construct: expressed in transfected cells; host or cells: HEK293
T4 sequence (P31651 1-614): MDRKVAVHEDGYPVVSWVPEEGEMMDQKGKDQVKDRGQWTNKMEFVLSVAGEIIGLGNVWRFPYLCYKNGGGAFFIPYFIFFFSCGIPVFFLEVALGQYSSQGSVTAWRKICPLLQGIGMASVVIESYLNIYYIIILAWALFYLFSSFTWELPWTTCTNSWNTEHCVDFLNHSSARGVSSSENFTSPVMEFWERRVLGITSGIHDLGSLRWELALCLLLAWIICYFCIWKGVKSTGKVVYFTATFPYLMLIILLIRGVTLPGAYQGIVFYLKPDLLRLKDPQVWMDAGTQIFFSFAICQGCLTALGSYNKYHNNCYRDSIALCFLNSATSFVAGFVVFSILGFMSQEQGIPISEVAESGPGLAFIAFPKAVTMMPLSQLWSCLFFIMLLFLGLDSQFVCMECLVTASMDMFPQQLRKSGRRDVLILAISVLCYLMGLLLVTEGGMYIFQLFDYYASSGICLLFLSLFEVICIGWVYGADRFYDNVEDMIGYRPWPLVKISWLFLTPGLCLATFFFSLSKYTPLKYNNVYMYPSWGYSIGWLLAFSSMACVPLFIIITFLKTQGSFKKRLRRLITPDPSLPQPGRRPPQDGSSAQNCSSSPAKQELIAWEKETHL
Nature of the assay: [^3H]GABA uptake assay, HEK293 cells expressing mGAT2. To be noted: for remaining activity at 100 µM: HEK293, in presence of 100 μM compound. In kind it is cell-based. The method, then:
as §1, §2

The target of assay [5] is T1, mGAT1. In words: [^3H]GABA uptake assay, HEK293 cells expressing mGAT1. To be noted: HEK293; in presence of 100 μM compound. In kind it is cell-based. The method, then: as §1, §2

SMILES strings stand for the structures. pIC50: −log10 of the molar value.

For the compound `COc1ccc(C(OCCN2CCCC(C(=O)O)C2)(c2ccc(OC)cc2)c2ccc(C(C)=O)cc2)cc1` (racemic) [5 b, rac ‐1‐{2‐[(4‐Acetylphenyl)bis(4‐methoxyphenyl)methoxy]ethyl}piperidine‐3‐carboxylic acid], the Ki in assay [1] was 30.9 µM. The negative-log IC50 (pIC50) in assay [2] ([^3H]GABA uptake, pIC50±SEM) is 5.43; in assay [3] it was 4.24. For the same compound, the remaining activity at 100 µM stood at 64.2% in assay [4] and 64.6% in assay [5].
Turning to `CCOC(=O)C1CCCN(CCOC(c2ccc(CNC(C)(C)C(=O)OCC)cc2)(c2ccc(OC)cc2)c2ccc(OC)cc2)C1` (racemic) [12 q, rac‐ Ethyl 1‐{2‐[(4‐{[(1‐ethoxy‐2‐methyl‐1‐oxopropan‐2‐yl)amino]methyl}‐phenyl)bis(4‐methoxyphenyl)methoxy]ethyl}piperidine‐3‐carboxylate], the remaining activity at 100 µM in assay [1] amounted to 90.9%; in assay [2] (in presence of 100 μM compound), 57.4%; in assay [3] it was 49.3%; in assay [4] it was 67.4%; in assay [5], 66.9%.
As for `COc1ccc(C(O)(CCCN2CCCC(C(=O)O)C2)c2ccc(OC)cc2)cc1` (racemic) [5 l, rac ‐1‐[4‐Hydroxy‐4,4‐bis(4‐methoxyphenyl)butyl]piperidine‐3‐carboxylic acid], in assay [1], the Ki is 32.4 µM. Further, the remaining activity at 100 µM in assay [2] (in presence of 100 μM compound) worked out at 92%; in assay [3], 80.7%; in assay [4], 62.5%; in assay [5], 69.5%.
As for `CCOC(=O)C1CCCN(CCOC(c2ccc(COC)cc2)(c2ccc(OC)cc2)c2ccc(OC)cc2)C1` (racemic) [12 f, rac‐ Ethyl 1‐(2‐{[4‐(methoxymethyl)phenyl]bis[4‐methoxyphenyl]‐methoxy}ethyl)piperidine‐3‐carboxylate], the remaining activity at 100 µM in assay [1] was found to be 55.3%; in assay [2] (in presence of 100 μM compound), 50.8%; in assay [3], 56.9%; in assay [4] it was 58.8%; in assay [5] it was 66.6%.
Consider `CCOC(=O)C1CCCN(CCOC(c2ccc(C=O)cc2)(c2ccc(OC)cc2)c2ccc(OC)cc2)C1` (racemic) [12 a, rac‐ Ethyl 1‐{2‐[(4‐formylphenyl)bis(4‐methoxyphenyl)methoxy]ethyl}‐piperidine‐3‐carboxylate], for which the remaining activity at 100 µM in assay [1] is 85.4%; in assay [2] (in presence of 100 μM compound) it was 55.9%; in assay [5], 55.5%. Further, the pIC50 was 4.90 in assay [3] and 4.57 in assay [4] ([^3H]GABA uptake, pIC50±SEM).
Take `COc1ccc(C(OCCN2CCCC(C(=O)O)C2)(c2ccc(CNCC(=O)O)cc2)c2ccc(OC)cc2)cc1` (racemic) [5 n, rac‐ 1‐{2‐[(4‐{[(Carboxymethyl)amino]methyl}phenyl)bis(4‐methoxy‐phenyl)methoxy]ethyl}piperidine‐3‐carboxylic acid]: the remaining activity at 100 µM in assay [1] was found to be 86.2%; in assay [2] (in presence of 100 μM compound) it was 72.2%; in assay [3], 90.9%; in assay [4] it was 96.1%; in assay [5], 81.8%.
In the case of `CCOC(=O)C1CCCN(CCOC(c2ccc(OC)cc2)(c2ccc(OC)cc2)c2ccc(C(N)=O)cc2)C1` (racemic) [12 j, rac‐ Ethyl 1‐{2‐[(4‐carbamoylphenyl)bis(4‐methoxyphenyl)methoxy]‐ethyl}piperidine‐3‐carboxylate], the remaining activity at 100 µM turned out to be 89.3% in assay [1], 60% in assay [2] (in presence of 100 μM compound), 56.1% in assay [4] and 57.8% in assay [5]. Also, the negative logarithm of the IC50 (pIC50) in assay [3] was 4.10.
Turning to `COc1ccc(C(OCCN2CCCC(C(=O)O)C2)(c2ccc(CNc3ccc(C(=O)O)cc3)cc2)c2ccc(OC)cc2)cc1` (racemic) [5 t, rac‐ 1‐{2‐[(4‐{[(4‐Carboxyphenyl)amino]methyl}phenyl)bis(4‐methoxy‐phenyl)methoxy]ethyl}piperidine‐3‐carboxylic acid], the remaining activity at 100 µM turned out to be 54.1% in assay [1], 50% in assay [2] (in presence of 100 μM compound), 96% in assay [3] and 99.5% in assay [5]. The “remaining [^3H]GABA uptake mGAT4” value in assay [2] (in presence of 100 μM compound) was 50,0%.
